In patent US12662455B2, “Tetrahydrobenzo-quinoline sulfonamide derivatives useful as IgE modulators” (UCB Biopharma SRL, priority 2019, dated 2026):

Each molecule was assayed against T1, IgE-Tb / soluble IgE receptor FcεRIα (Y131A mutation) (Homo sapiens, UniProt P01854, C105A/N146Q/N252Q) (assay: in vitro FRET assay: binding of IgE-Tb to receptor FcεRIα-Y131A-AF488 and inhibition by compounds). Conditions: 5 nM IgE-Tb, 25 nM FcεRIα-Y131A-AF488, 2 hours at room temperature; read-out: FRET IC50 range.
T1 construct: 86 nmoles of IgE-Fc(N265Q, N371Q) (Young et al., 1995)
T1 sequence (P01854 104-428 isoform P01854-1 C105A/N146Q/N252Q): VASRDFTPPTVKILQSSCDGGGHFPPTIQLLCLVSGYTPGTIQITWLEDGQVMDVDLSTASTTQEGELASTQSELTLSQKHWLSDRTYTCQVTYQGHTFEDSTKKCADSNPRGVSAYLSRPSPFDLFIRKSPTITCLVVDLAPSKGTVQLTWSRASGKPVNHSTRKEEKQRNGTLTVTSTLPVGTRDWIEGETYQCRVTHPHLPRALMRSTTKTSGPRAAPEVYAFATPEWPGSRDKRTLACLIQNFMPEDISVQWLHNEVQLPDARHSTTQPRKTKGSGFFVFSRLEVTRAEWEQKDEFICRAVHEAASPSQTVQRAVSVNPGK
Description: 86 nmoles of IgE-Fc(N265Q, N371Q) (Young et al., 1995) at 172 μM in 100 mM NaHCO3, pH 9.5 was added to 1 mg of LanthaScreen™ Amine Reactive Tb Chelate (ThermoFisher catalogue number PV3583) and incubated for 16 hours at 20° C. The material was then buffer exchanged into Phosphate Buffered Saline (being, 137 mM NaCl, 2.7 mM KCl, 10 mM Na2HPO4, 1.8 mM K2HPO4, pH 7.4) and the material quantified and the degree of Tb conjugation determined by measuring the absorption at 280 nm and 343 nm.
The integrity of the conjugated material was determined by analytical size exclusion chromatography on a S200 HR 10×300 column (GE Healthcare). Typical conjugation ratios were 4:1 Tb:IgE-Fc.
400 nmoles FcεR1α(Y131A mutant) (Cook et al., 1997) at 400 μM in 100 mM NaOAc pH 5.5 was reacted with 1 mM final concentration sodium periodate (in 100 mM NaOAc, pH 5.5) for 60 minutes at 22° C. Oxidation was quenched with the addition of 40 μL of ethanediol and incubation for 60 minutes at 22° C. The protein was buffer exchanged in to conjugation buffer (50 mM NaHCO3, 150 mM NaCl, pH 9.5) and concentrated to 750 μM.
175 nmoles of protein was added to 1 mg of Alexa Fluor™ 488 hydrazide (Invitrogen) and incubated for 16 hours at 22° C. Sodium cyanoborohydride (at 100 mM in conjugation buffer) was added to a final concentration of 1 mM and incubated for 60 minutes on ice. The protein was buffer exchanged into Phosphate Buffered Saline (being, 137 mM NaCl, 2.7 mM KCl, 10 mM Na2HPO4, 1.8 mM K2HPO4, pH 7.4) and the material quantified and the degree of Alexa Fluor™ 488 conjugation determined by measuring the absorption at 280 nm and 495 nm.
The integrity of the conjugated material was determined by analytical size exclusion chromatography on a S200 HR 10×300 column (GE Healthcare). Typical conjugation ratios were 2:1 Alexa Fluor™488: sFcεR1α
The aim was to measure binding of IgE-Tb to receptor, and the inhibition thereof by compounds, using an in vitro Fluorescence Resonance Energy Transfer (FRET) Assay.
FRET reagents used were IgE labelled with Terbium (FRET donor), and soluble IgE receptor FcεRIα with a Y131A mutation, labelled with Alexa Fluor™ 488 (FRET acceptor). Unlabelled FcεRIα was also used to generate a background control. The assay buffer consisted of 20 mM Tris pH7.2, 150 mM NaCl, and 0.002% Tween, 1% DMSO.
The assay was conducted according to the following: Each assay reaction was conducted in a volume of 25 μl in a 384-well half-volume plate. 10 point compound serial dilutions (3-fold) were generated in DMSO at a concentration of ×50 that of the final assay concentration (FAC). Compound solutions were then prepared by IgE-Tb diluting 10-fold in assay buffer. For the assay, 5 μl of diluted compound was added to 10 μl of, followed by addition of 10 μl FcεRIα-Y131A-AF488. FRET reagents FACs were 5 nM IgE-Tb, 25 nM FcεRIα-Y131A-AF488. Usually the top FAC of compound in the assay was 10 μM. The final DMSO concentration was 2%. The minimum signal (MIN) was measured by adding 5 μl unlabelled FcεRIα at 1 μM (FAC=200 nM) to the FRET reagents. The maximum FRET signal (MAX) was measured in wells containing FRET reagents but no compound.
The assay was incubated for 2 hours at room temperature, protected from light and evaporation, and with gentle agitation.
Measurement of FRET for each well was carried out by exciting at 330 nm and measuring emission at 495/520 nm using an Envision plate reader (Perkin Elmer). FRET ratio was calculated as follows: Emission at 520/Emission at 495×1000.
The FRET ratio was used for the data analysis.
Z′ was calculated as follows (σ=standard deviation and μ=mean): 1−((3×σ^MAX)+(3×σMIN))/(μMAX−μMIN)
Z′ above 0.5 was considered a good assay.
Background signal (MIN) was subtracted from all wells. Using the background subtracted values, the percent inhibition by compound in each test-well was calculated as follows: 100−Test-well FRET ratio/MAX FRET ratio×100.
Percent inhibition was plotted against compound concentration. […]
For `CC(C)CNS(=O)(=O)c1cc2c(c3cnc(C4CC4)cc13)CCCC2` [Example 1, 3-cyclopropyl-N-(2-methylpropyl)-7,8,9,10-tetrahydrobenzo[h]isoquinoline-5-sulfonamide], the IC50 was 100 to 1000 nM.
`Cc1cc(NC(=O)NC2CCCc3c2cc(S(=O)(=O)NCC(C)(C)F)c2cc(C4CC4)ncc32)n(C)n1` (stereo not drawn) [Example 11, 1-[3-cyclopropyl-5-[(2-fluoro-2-methylpropyl)sulfamoyl]-7,8,9,10-tetrahydrobenzo[h]isoquinolin-7-yl]-3-(2,5-dimethylpyrazol-3-yl) urea] gave an IC50 of 100 to 1000 nM.
With `Cn1nnc(-c2ccc(NC3CCCc4cc(S(=O)(=O)NCC(C)(C)F)c5cc(C6CC6)ncc5c43)cn2)n1` (stereo not drawn) [Example 8, 3-cyclopropyl-N-(2-fluoro-2-methylpropyl)-10-[[6-(2-methyltetrazol-5-yl)pyridin-3-yl]amino]-7,8,9,10-tetrahydrobenzo[h]isoquinoline-5-sulfonamide] the IC50 was 100 to 1000 nM.
With `CC(C)CNS(=O)(=O)c1cc2c(c3cnc(C4CC4)cc13)C(NS(C)(=O)=O)CCC2` (stereo not drawn) [Example 5, 3-cyclopropyl-10-(methanesulfonamido)-N-(2-methylpropyl)-7,8,9,10-tetrahydrobenzol[h]isoquinoline-5-sulfonamide] the IC50 was 1000 to 5000 nM.
`Cn1nnc(-c2ccc(NC3CCCc4c3cc(S(=O)(=O)NCC(C)(C)F)c3cc(C5CC5)ncc43)cn2)n1` (stereo not drawn) [Example 6] gave an IC50 of 10 to 50 nM.
Molecule `CCOC(=O)c1ncn(C2CCCc3c2cc(S(=O)(=O)NCC(C)(C)F)c2cc(C4CC4)ncc32)c1N` (stereo not drawn) [Example 9, ethyl 5-amino-1-[3-cyclopropyl-5-[(2-fluoro-2-methylpropyl)sulfamoyl]-7,8,9,10-tetrahydrobenzo[h]isoquinolin-7-yl]imidazole-4-carboxylate] has an IC50 of 100 to 1000 nM.
Work on `CCNC(=O)NC1CCCc2cc(S(=O)(=O)NCC(C)C)c3cc(C4CC4)ncc3c21` (stereo not drawn) [Example 3, 1-[3-cyclopropyl-5-(2-methylpropylsulfamoyl)-7,8,9,10-tetrahydrobenzo[h]isoquinolin-10-yl]-3-ethylurea] yielded an IC50 of 100 to 1000 nM.
With `CCOC(=O)c1cn(C2CCCc3c2cc(S(=O)(=O)NCC(C)(C)F)c2cc(C4CC4)ncc32)cn1` (stereo not drawn) [Example 12, ethyl 1-[3-cyclopropyl-5[(2-fluoro-2-methylpropyl)sulfamoyl]-7,8,9,10-tetrahydrobenzo[h]isoquinolin-7-yl]imidazole-4-carboxylate] the IC50 was 100 to 1000 nM.
Molecule `Cc1noc(-c2cncc(NC3CCCc4c3cc(S(=O)(=O)NCC(C)(C)F)c3cc(C5CC5)ncc43)c2)n1` (stereo not drawn) [Example 10, 3-cyclopropyl-N-(2-fluoro-2-methylpropyl)-7-[[5-(3-methyl-1,2,4-oxadiazol-5-yl)pyridin-3-yl]amino]-7,8,9,10-tetrahydrobenzo[h]isoquinoline-5-sulfonamide] has an IC50 of 50 to 100 nM.
`CC(C)CNS(=O)(=O)c1cc2c(c3cnc(C4CC4)cc13)CCCC2NS(C)(=O)=O` (stereo not drawn) [Example 4, 3-cyclopropyl-7-(methanesulfonamido)-N-(2-methylpropyl)-7,8,9,10-tetrahydrobenzo[h]isoquinoline-5-sulfonamide] was tested, and the IC50 was 100 to 1000 nM.
In the case of `Cc1cc(Nc2nncn2C2CCCc3c2cc(S(=O)(=O)NCC(C)(C)F)c2cc(C4CC4)ncc32)n(C)n1` (stereo not drawn) [Example 7, 3-cyclopropyl-7-[3-[(2,5-dimethylpyrazol-3-yl)amino]-1,2,4-triazol-4-yl]-N-(2-fluoro-2-methylpropyl)-7,8,9,10-tetrahydrobenzo[h]isoquinoline-5-sulfonamide], the IC50 is reported as 100 to 1000 nM.
Molecule `CCNC(=O)NC1CCCc2c1cc(S(=O)(=O)NCC(C)C)c1cc(C3CC3)ncc21` (stereo not drawn) [Example 2, 1-[3-cyclopropyl-5-(2-methylpropylsulfamoyl)-7,8,9,10-tetrahydrobenzo[h]isoquinolin-7-yl]-3-ethylurea] has an IC50 of 50 to 100 nM.
